In brackets after ≈: the same amount, converted by molar mass. Where two headings read alike, the source gives them in different places.
Tested on: HIV-1RF
Assay: CEM-T4 cell infection assay, reverse transcriptase readout, isolate RF
Type: cell-based
Conditions: Human immunodeficiency virus 1, CEM-T4, 168 h, 7 days, read-out: Virus Isolate (EC50 ng/mL) RF
Source text: RF represents the HIV-1 strain HIV-LRF and RFR represents a mixture of resistant strains obtained by selection of RF against the compound of Example 1. RFR comprises a mixture of viral strains having protease genotypes of G48V (14/40 clones); G48V, V82A (18/40 clones); G48V, L90S (2/40 clones); G48V, 154T, V82A (1/40 clones); G48M (1/40 clones); G48V, Q61H (1/40 clones); V13I, G48V (1/40 clones); G48V, F53L, V82A (1/40 clones); and G48V, V82A, C95Y (1/40 clones). RFR2 represents a mixture of resistant strains obtained by cloning RFR by three rounds of growth at limiting dilution. RFR2 comprises a mixture of viral strains having protease genotypes of G48V, V82A (13/15 clones); G17E, G48V, V82A (1/15 clones); and G48V, V82A, N37D, N88D (1/15 clones). RFRR represents a mixture of resistant strains obtained by selection of RF against the compounds of Examples 1 and 2 and then cloning by three rounds of growth at limiting dilution. RFRR comprises a mixture of viral strains having protease genotypes of G48V, 154T, L63P, V82A (7/9 clones); G48V, 154T, L63P, V82A, N88S (1/9 clones); and G48V, 154T, L63P, G73M, V82A (1/9 clones). SF162 represents the HIV-1 strain SF-162 and SF162R represents a mixture of resistant strains obtained by selection of SF162 against the compound of Example 1. SF162R comprises a mixture of viral strains having protease genotypes of M461, F53L, L63P, A71V, N88D (2/3 clones); and M46I, F53L, L63P, A71V, N88D, Q92R (1/3 clones). 89-959 represents the HIV-1 strain 89-959 and 89-959R represents a mixture of resistant strains obtained by selection of 89-959 against the compound of Example 2. 89-959R comprises a mixture of viral strains having protease genotypes of N88S (4/5 clones); and D25N, T26A, D30N, D37N, R41K, G73D, R87K, N88S (1/4 clones). NL4 represents the HIV-1 strain HIV-1NL4-3. NL4(G48V) represents a strain having a synthetically generated site-directed mutation in the protease from glycine to valine at amino acid position number 48. NL4(I84V) represents a strain having a synthetically generated site-directed mutation in the protease from isoleucine to valine at amino acid position number 84. NL4(R8Q,M46I) represents a strain having synthetically generated site-directed mutations in the protease from arginine to glutamine at amino acid position number 8 and methionine to isoleucine at amino acid position number 46. NL4(P22-538) represents a mixture of resistant strains obtained by selection of HIV-1NL4-3 against the compound of Example 10 after 22 passages comprising protease genotypes M46I, L63P, A71V, V82F, I84V (4/10); M46I, L63P, V82F, I84V (3/10); and M46I, A71V, V82F, I84V (3/10). NL4(P37-538) represents resistant strains obtained by selection of HIV-1NL4-3 against the compound of Example 10 after 37 passages comprising protease genotype M46I, L63P, A71V, 184A. NL4(538/524) represents resistant strains obtained by selection of NL4(P22-538) against the compound of Example 5 after 24 passages comprising protease genotype M46I, L63P, A71V, 184A. NL4(538/P7-AG) represents a mixture of resistant strains obtained by selection of NL4(P22-538) against the compound of Example 12 after 7 passages comprising protease genotypes M46I, L63P, A71V, 184A; and V321, V82I. NL4(538/P24-AG) represents resistant strains obtained by selection of NL4(P22-538) against the compound of Example 12 after 24 passages comprising protease genotype M46I, L63P, A71V, 184A. NLA(P19-003) represents resistant strains obtained by selection of HIV-1^NL4-3 against the compound of Example 9 after 19 passages comprising protease genotype R8K, M46I. NL4(P34-003) represents resistant strains obtained by selection of HIV-1^NL4-3 against the compound of Example 9 after 34 passages comprising protease genotype R8K, M46I, L63P, A71V, L90M.
The viral isolate resistance results summarized in Tables 4-6 were generated according to the following assay procedure or minor modifications thereof. Assays are performed in 96-well tissue culture plates. […]

SMILES | EC50 (Table 4, CEM-T4 cells) [ng/mL] | EC50 (Table 5, CEM-T4 cells) [ng/mL] | EC50 (Table 6, CEM-T4 cells) [ng/mL]
CC(C)CN(C[C@@H](O)[C@H](Cc1ccccc1)NC(=O)[C@H](CC(N)=O)NC(=O)c1ccc2ccccc2n1)C(=O)NC(C)(C)C (relative stereo) [Example 1, [1S-[1R*(R*),2S*]]-N^1-[3-[[[(1,1-dimethylethyl)amino]carbonyl])2-methylpropyl)amino]-2-hydroxy-1-(phenylmethyl)propyl]-2-[(2-quinolinylcarbonyl)amino]-butanediamide] | 30 (≈ 0.0496 µM) | 24 (≈ 0.0397 µM) | 19 (≈ 0.0314 µM)
CC(C)CCN(C[C@@H](O)[C@H](Cc1ccccc1)NC(=O)[C@H](CC(N)=O)NC(=O)c1ccc2ccccc2n1)C(=O)NC(C)(C)C (relative stereo) [Example 7, [1S-[1R*(R*),2S*]]-N^1-[3-[[[(1,1-dimethylethyl)amino]carbonyl](3-methylbutyl)amino]-2-hydroxy-1-(phenylmethyl)propyl]-2-[(2-quinolinylcarbonyl)amino]-butanediamide] |  | 2 (≈ 0.00323 µM) | 
CC(C)(C)NC(=O)[C@@H]1CC2CCCC[C@@H]2CN1C[C@@H](O)[C@H](Cc1ccccc1)NC(=O)[C@H](CC(N)=O)NC(=O)c1ccc2ccccc2n1 (stereo in doubt) [Example 6, N-tert-Butyl decahydro-2-[2(R)-hydroxy-4-phenyl-3(S)-[[N-(2-quinolylcarbonyl)-L-asparaginyl]amino]butyl]-(4aR,8aS)-isoquinoline-3(S)-carboxamide] | 12 (≈ 0.0179 µM) |  | 6 (≈ 0.00894 µM)
CNCC(=O)N[C@H](C(=O)N[C@@H](Cc1ccccc1)[C@H](O)CN(CCC(C)C)C(=O)NC(C)(C)C)C(C)(C)C [Example 2, (2R,3S)-3-(N-methylaminoacetyl-L-tert-butylglycinyl)amino-1-(N-isoamyl-N-(tert-butylcarbamoyl))amino-4-phenyl-2-butanol] | 40 (≈ 0.0749 µM) |  | 35 (≈ 0.0656 µM)
CC(C)(C)NC(=O)[C@@H]1CN(Cc2cccnc2)CCN1C[C@@H](O)C[C@@H](Cc1ccccc1)C(=O)N[C@H]1c2ccccc2C[C@H]1O [Example 5, N-(2(R)-Hydroxy-1(S)-indanyl)-2(R)-phenylmethyl-4(S)-hydroxy-5-(1-(4-(3-pyridylmethyl)-2(S)-N′-(t-butylcarboxamido)-piperazinyl))-pentaneamide] | 44 (≈ 0.0717 µM) |  | 6 (≈ 0.00978 µM)
CC(C)CN(C[C@@H](O)[C@H](Cc1ccccc1)NC(=O)[C@H](CC(N)=O)NC(=O)c1ccc2ccccc2n1)S(=O)(=O)NC(C)(C)C [Example 8, N-[3-[N^2-[N^1-(1,1-dimethylethyl)aminosulfonyl]-N^2-(2-methylpropyl)amino]-2R-hydroxy-1S-(phenylmethyl)propyl]-2S-[(2-quinolinylcarbonyl)amino]butanediamide] |  | 2 (≈ 0.00312 µM) | 
